In patent publication US6706663B2, “Herbicidal 3-heterocyclic substituted benzisothiazole and benzisoxazole compounds” (Wyeth, priority 2000, dated 2004):

Columns and labels:
[1] = test system: ABUTH (Abutilon theophrasti); test: Postemergence herbicidal evaluation; type: in vivo, Medic.
Outline: (§1)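 Seedlings grown for about two weeks were sprayed postemergence and then kept under standard greenhouse care. Injury was rated visually 4–5 weeks after treatment on a 0–9 scale against untreated controls, and ratings from repeat tests were averaged.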

[2] = test system: AMBEL (Ambrosia artemisifolia); test: Postemergence herbicidal evaluation; type: in vivo, L.
Outline: as §1

[3] = test system: CASOB (Cassia obtusifolia); test: Postemergence herbicidal evaluation; type: in vivo, L.
Outline: as §1

[4] = test system: CHEAL (Chenopodium album); test: Postemergence herbicidal evaluation; type: in vivo, L.
Outline: as §1

[5] = test system: IPOHE (Ipomoea hederacea); test: Postemergence herbicidal evaluation; type: in vivo, (L.) Jacq.
Outline: as §1

[6] = test system: ECHCG (Echinochloa crus-galli); test: Postemergence herbicidal evaluation; type: in vivo, (L.) Beau
Outline: as §1

[7] = test system: ORYSAT (Rice, Tebonnet); test: Postemergence herbicidal evaluation; type: in vivo, Oryza sativa, (L.) Tebonnet
Outline: as §1

[8] = test system: TRZAWR (Wheat, Winter, cv Riband); test: Postemergence herbicidal evaluation; type: in vivo, Triticum aestivum
Outline: as §1

[9] = test system: ZEAMX (Corn, Field); test: Postemergence herbicidal evaluation; type: in vivo, Zea mays, L.
Outline: as §1

[10] = test system: ABUTH (Abutilon theophrasti); test: Preemergence herbicidal evaluation; type: in vivo, Medic.; settings: preemergence, rated 4-5 weeks after treatment
[11] = test system: AMBEL (Ambrosia artemisifolia); test: Preemergence herbicidal evaluation; type: in vivo, L.; settings: preemergence, rated 4-5 weeks after treatment
Outline: (§2)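 Seeds mixed with potting soil were planted atop about one inch of soil, then sprayed with test compound in aqueous acetone. Cups were kept in the greenhouse and rated visually 4–5 weeks after treatment on a 0–9 scale against untreated control.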

[12] = test system: CASOB (Cassia obtusifolia); test: Preemergence herbicidal evaluation; type: in vivo, L.; settings: preemergence, rated 4-5 weeks after treatment
Outline: as §2

[13] = test system: CHEAL (Chenopodium album); test: Preemergence herbicidal evaluation; type: in vivo, L.; settings: preemergence, rated 4-5 weeks after treatment
Outline: as §2

[14] = test system: ORYSAT (Rice, Tebonnet); test: Preemergence herbicidal evaluation; type: in vivo, Oryza sativa, (L.) Tebonnet; settings: preemergence, rated 4-5 weeks after treatment
[15] = test system: TRZAWR (Wheat, Winter, cv Riband); test: Preemergence herbicidal evaluation; type: in vivo, Triticum aestivum; settings: preemergence, rated 4-5 weeks after treatment
Outline: as §2

[16] = test system: ECHORC (Echinochloa oryzoides); test: Flooded paddy, preemergence weed control; type: in vivo, Echinochloa oryzoides (Ard.) Fritsch.; settings: rated 3-4 weeks after treatment, 0-9 rating scale
Outline: (§3)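 Plants were established from seed or propagating organs in flooded silt loam, with the water surface held 1.5 to 3 cm above the soil for the entire experiment. Injury was assessed visually against a control and given a 0-9 score.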

[17] = test system: CYPSE (Cyperus serotinus); test: Flooded paddy, preemergence weed control; type: in vivo, Rottb.; settings: rated 3-4 weeks after treatment, 0-9 rating scale
Outline: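 Seeds or propagules were planted 0.5 cm deep in silt loam and flooded to 1.5–3 cm. Compounds in 50/50 v/v aqueous/acetone were pipetted into the flood water at about 0.0080 to 0.1250 kg/ha. After 3–4 weeks in the greenhouse, effect was rated visually on a 0–9 scale versus untreated control.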

[18] = test system: SAGPY (Sagittaria pygmaea); test: Flooded paddy, preemergence weed control; type: in vivo, L.; settings: rated 3-4 weeks after treatment, 0-9 rating scale
Outline: as §3

[19] = test system: ORYSAT (Rice, Tebonnet); test: Flooded paddy, post-transplant rice tolerance; type: in vivo, Oryza sativa, (L.) Tebonnet; settings: flooded paddy, post-transplant rice, rated 3-4 weeks after treatment, 0-9 rating scale
Outline: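 Scores (0-9) reflect visual injury relative to untreated plants in flooded silt loam. Each pot held two transplanted ten-day-old seedlings under 1.5 to 3 cm standing water in the greenhouse.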

CC(=O)N1CCSC1c1nsc2ccc(-n3c(=O)cc(C(F)(F)F)n(C)c3=O)cc12 (stereo not shown) [Compound 29, 3-acetyl-2-[5-[3,6-dihydro-3-methyl-2,6-dioxo-4-(trifluoromethyl)-1(2H)-pyrimidinyl]-1,2-benzisothiazol-3-yl]thiazolidine]
Postemergence herbicidal rating, ABUTH ([1]; rate 0.0320 kg/ha): 9.0
Postemergence herbicidal rating, ABUTH ([1]; rate 0.0620 kg/ha): 9.0
Postemergence herbicidal rating, AMBEL ([2]; rate 0.0320 kg/ha): 9.0
Postemergence herbicidal rating, AMBEL ([2]; rate 0.0620 kg/ha): 9.0
Postemergence herbicidal rating, CASOB ([3]; rate 0.0320 kg/ha): 2.0
Postemergence herbicidal rating, CASOB ([3]; rate 0.0620 kg/ha): 5.0
Postemergence herbicidal rating, CHEAL ([4]; rate 0.0320 kg/ha): 9.0
Postemergence herbicidal rating, CHEAL ([4]; rate 0.0620 kg/ha): 9.0
Postemergence herbicidal rating, IPOHE ([5]; rate 0.0320 kg/ha): 9.0
Postemergence herbicidal rating, IPOHE ([5]; rate 0.0620 kg/ha): 9.0
Postemergence herbicidal rating, ECHCG ([6]; rate 0.0320 kg/ha): 0.0
Postemergence herbicidal rating, ECHCG ([6]; rate 0.0620 kg/ha): 2.0
Postemergence herbicidal rating, ORYSAT ([7]; rate 0.0320 kg/ha): 3.0
Postemergence herbicidal rating, ORYSAT ([7]; rate 0.0620 kg/ha): 3.0
Postemergence herbicidal rating, TRZAWR ([8]; rate 0.0320 kg/ha): 4.5
Postemergence herbicidal rating, TRZAWR ([8]; rate 0.0620 kg/ha): 4.5
Postemergence herbicidal rating, ZEAMX ([9]; rate 0.0320 kg/ha): 6.0
Postemergence herbicidal rating, ZEAMX ([9]; rate 0.0620 kg/ha): 6.0
ABUTH preemergence herbicidal rating ([10]; Rate 0.0620 kg/ha): 8.0
ABUTH preemergence herbicidal rating ([10]; Rate 0.1250 kg/ha): 9.0
ABUTH preemergence herbicidal rating ([10]; Rate 0.2500 kg/ha): 9.0
AMBEL preemergence herbicidal rating ([11]; Rate 0.0620 kg/ha): 7.0
AMBEL preemergence herbicidal rating ([11]; Rate 0.1250 kg/ha): 8.0
AMBEL preemergence herbicidal rating ([11]; Rate 0.2500 kg/ha): 9.0
CASOB preemergence herbicidal rating ([12]; Rate 0.0620 kg/ha): 3.5
CASOB preemergence herbicidal rating ([12]; Rate 0.1250 kg/ha): 6.5
CASOB preemergence herbicidal rating ([12]; Rate 0.2500 kg/ha): 8.0
CHEAL preemergence herbicidal rating ([13]; Rate 0.0620 kg/ha): 9.0
CHEAL preemergence herbicidal rating ([13]; Rate 0.1250 kg/ha): 9.0
CHEAL preemergence herbicidal rating ([13]; Rate 0.2500 kg/ha): 9.0
ORYSAT preemergence herbicidal rating ([14]; Rate 0.0620 kg/ha): 4.0
ORYSAT preemergence herbicidal rating ([14]; Rate 0.1250 kg/ha): 5.0
ORYSAT preemergence herbicidal rating ([14]; Rate 0.2500 kg/ha): 6.5
TRZAWR preemergence herbicidal rating ([15]; Rate 0.0620 kg/ha): 2.0
TRZAWR preemergence herbicidal rating ([15]; Rate 0.1250 kg/ha): 8.0
TRZAWR preemergence herbicidal rating ([15]; Rate 0.2500 kg/ha): 8.0
herbicidal rating, ECHORC ([16]; rate 0.0080 kg/ha): 0.0
herbicidal rating, ECHORC ([16]; rate 0.0320 kg/ha): 7.0
herbicidal rating, ECHORC ([16]; rate 0.1250 kg/ha): 9.0
herbicidal rating, CYPSE ([17]; rate 0.0320 kg/ha): 0.0
herbicidal rating, CYPSE ([17]; rate 0.1250 kg/ha): 6.0
herbicidal rating, SAGPY ([18]; rate 0.0080 kg/ha): 0.0
herbicidal rating, SAGPY ([18]; rate 0.0320 kg/ha): 3.5
herbicidal rating, SAGPY ([18]; rate 0.1250 kg/ha): 9.0
herbicidal rating, ORYSAT (rice tolerance) ([19]; rate 0.0080 kg/ha): 0.0
herbicidal rating, ORYSAT (rice tolerance) ([19]; rate 0.0320 kg/ha): 3.5
herbicidal rating, ORYSAT (rice tolerance) ([19]; rate 0.1250 kg/ha): 7.0

Cn1c(C(F)(F)F)cc(=O)n(-c2ccc3snc(C4SCCN4C(=O)c4ccccc4)c3c2)c1=O (stereo not shown) [Compound 30, 3-benzoyl-2-[5-[3,6-dihydro-3-methyl-2,6-dioxo-4-(trifluoromethyl)-1(2H)-pyrimidinyl]-1,2-benzisothiazol-3-yl]thiazolidine]
Postemergence herbicidal rating, ABUTH ([1]; rate 0.0320 kg/ha): 9.0
Postemergence herbicidal rating, ABUTH ([1]; rate 0.0620 kg/ha): 9.0
Postemergence herbicidal rating, AMBEL ([2]; rate 0.0320 kg/ha): 4.0
Postemergence herbicidal rating, AMBEL ([2]; rate 0.0620 kg/ha): 9.0
Postemergence herbicidal rating, CASOB ([3]; rate 0.0320 kg/ha): 0.0
Postemergence herbicidal rating, CASOB ([3]; rate 0.0620 kg/ha): 2.0
Postemergence herbicidal rating, CHEAL ([4]; rate 0.0320 kg/ha): 4.0
Postemergence herbicidal rating, CHEAL ([4]; rate 0.0620 kg/ha): 9.0
Postemergence herbicidal rating, IPOHE ([5]; rate 0.0320 kg/ha): 7.0
Postemergence herbicidal rating, IPOHE ([5]; rate 0.0620 kg/ha): 9.0
Postemergence herbicidal rating, ECHCG ([6]; rate 0.0320 kg/ha): 0.0
Postemergence herbicidal rating, ECHCG ([6]; rate 0.0620 kg/ha): 2.0
Postemergence herbicidal rating, ORYSAT ([7]; rate 0.0320 kg/ha): 2.0
Postemergence herbicidal rating, ORYSAT ([7]; rate 0.0620 kg/ha): 3.0
Postemergence herbicidal rating, TRZAWR ([8]; rate 0.0320 kg/ha): 4.5
Postemergence herbicidal rating, TRZAWR ([8]; rate 0.0620 kg/ha): 4.5
Postemergence herbicidal rating, ZEAMX ([9]; rate 0.0320 kg/ha): 4.5
Postemergence herbicidal rating, ZEAMX ([9]; rate 0.0620 kg/ha): 6.0
ABUTH preemergence herbicidal rating ([10]; Rate 0.0620 kg/ha): 9.0
ABUTH preemergence herbicidal rating ([10]; Rate 0.1250 kg/ha): 9.0
ABUTH preemergence herbicidal rating ([10]; Rate 0.2500 kg/ha): 9.0
AMBEL preemergence herbicidal rating ([11]; Rate 0.0620 kg/ha): 4.5
AMBEL preemergence herbicidal rating ([11]; Rate 0.1250 kg/ha): 7.5
AMBEL preemergence herbicidal rating ([11]; Rate 0.2500 kg/ha): 9.0
CASOB preemergence herbicidal rating ([12]; Rate 0.0620 kg/ha): 0.0
CASOB preemergence herbicidal rating ([12]; Rate 0.1250 kg/ha): 1.5
CASOB preemergence herbicidal rating ([12]; Rate 0.2500 kg/ha): 3.0
CHEAL preemergence herbicidal rating ([13]; Rate 0.0620 kg/ha): 9.0
CHEAL preemergence herbicidal rating ([13]; Rate 0.1250 kg/ha): 9.0
CHEAL preemergence herbicidal rating ([13]; Rate 0.2500 kg/ha): 9.0
ORYSAT preemergence herbicidal rating ([14]; Rate 0.0620 kg/ha): 0.0
ORYSAT preemergence herbicidal rating ([14]; Rate 0.1250 kg/ha): 0.0
ORYSAT preemergence herbicidal rating ([14]; Rate 0.2500 kg/ha): 1.0
TRZAWR preemergence herbicidal rating ([15]; Rate 0.0620 kg/ha): 0.0
TRZAWR preemergence herbicidal rating ([15]; Rate 0.1250 kg/ha): 2.0
TRZAWR preemergence herbicidal rating ([15]; Rate 0.2500 kg/ha): 6.0
herbicidal rating, ECHORC ([16]; rate 0.0080 kg/ha): 3.0
herbicidal rating, ECHORC ([16]; rate 0.0320 kg/ha): 4.0
herbicidal rating, ECHORC ([16]; rate 0.1250 kg/ha): 9.0
herbicidal rating, CYPSE ([17]; rate 0.0320 kg/ha): 0.0
herbicidal rating, CYPSE ([17]; rate 0.1250 kg/ha): 3.0
herbicidal rating, SAGPY ([18]; rate 0.0080 kg/ha): 0.0
herbicidal rating, SAGPY ([18]; rate 0.0320 kg/ha): 1.0
herbicidal rating, SAGPY ([18]; rate 0.1250 kg/ha): 6.0
herbicidal rating, ORYSAT (rice tolerance) ([19]; rate 0.0080 kg/ha): 0.0
herbicidal rating, ORYSAT (rice tolerance) ([19]; rate 0.0320 kg/ha): 3.0
herbicidal rating, ORYSAT (rice tolerance) ([19]; rate 0.1250 kg/ha): 5.0
